Earlier results as cited in Sander's compilation of Henry's law constants (doi:10.1016/j.chemosphere.2021.129858).

Assay: Henry solubility constant Hcp at 298.15 K (mol/(m3 Pa))
Conditions: reference: Schwardt et al. (2021); cited value

Structure (SMILES) | Henry solubility constant Hcp
ClCC(Cl)(Cl)Cl [1,1,1,2-tetrachloroethane] | 0.005
CC(Cl)(Cl)Cl [1,1,1-trichloroethane] | 0.0006
ClC(Cl)C(Cl)Cl [1,1,2,2-tetrachloroethane] | 0.023
ClCC(Cl)Cl [1,1,2-trichloroethane] | 0.011
C=C(Cl)Cl [1,1-dichloroethene] | 0.00037
CC(Cl)CCl (stereo not drawn) [1,2-dichloropropane] | 0.0037
Cc1ccccc1C [1,2-dimethylbenzene] | 0.002
Clc1cccc(Cl)c1 [1,3-dichlorobenzene] | 0.0031
Cc1cccc(C)c1 [1,3-dimethylbenzene] | 0.0014
Clc1ccc(Cl)cc1 [1,4-dichlorobenzene] | 0.0032
Cc1ccc(C)cc1 [1,4-dimethylbenzene] | 0.0015
Cc1ccc(Cl)cc1Cl [2,4-dichloro-1-methylbenzene] | 0.0027
c1cc2c3c(cccc3c1)CC2 [acenaphthene] | 0.054
c1ccc2cc3ccccc3cc2c1 [anthracene] | 0.18
c1ccccc1 [benzene] | 0.0018
c1ccc2c(c1)-c1cccc3cccc-2c13 [benzo[jk]fluorene] | 0.58
Clc1ccccc1 [chlorobenzene] | 0.0024
CCCl [chloroethane] | 0.00081
C=CCl [chloroethene] | 0.00041
ClCCl [dichloromethane] | 0.0039
CCc1ccccc1 [ethylbenzene] | 0.0014
Cc1ccccc1 [methylbenzene] | 0.0016
c1ccc2ccccc2c1 [naphthalene] | 0.021
c1ccc2c(c1)ccc1ccccc12 [phenanthrene] | 0.21
CCCc1ccccc1 [propylbenzene] | 0.0009
ClC(Cl)=C(Cl)Cl [tetrachloroethene] | 0.00057
ClC(Cl)(Cl)Cl [tetrachloromethane] | 0.00034
ClC=C(Cl)Cl [trichloroethene] | 0.0011
